Common to all, as to type: cell-based
Experiment [1] concerns MDA-MB-231. As to the kind of experiment: Antiproliferative activity (MTS assay), MDA-MB-231. As to conditions: Homo sapiens, MDA-MB-231, 96 h, MDA-MB-231 cells. Here is the method: (§1) Antiproliferative effect is expressed as IC50 values in microMolar final concentration.
(§2) Cells were grown at 37° C. in a humidified atmosphere with 5% CO2 and 95% air. Cells were seeded in 96 well tissue culture plates.
(§3) Compound treatment started after overnight incubation of cells (TO). […] Compound was added to the plate in triplicate wells, and the plates were then incubated for 96 hours. DMSO (compounds diluents) was also included and added to the plate in control wells. Cell viability was then determined by MTS assay using CellTiter 96® AQueous non-radioactive cell proliferation assay system (Promega). A plate reader (Molecular Devices, Vmax) was used to read the optical densities, and the results were used to deduce concentration-response curves. […] The results were analyzed using linear regression software (GraphPad Prism 5; GraphPad Software Inc.).
(§4) The GI50 values (growth inhibitory activity) were determined to emphasize on the correction for the cell count at time zero; thus, the % inhibition of test drug were: [1−(T−T0)/(C−T0)]×100; and these value were used to plot the concentration-response curves, and then analyzed with linear regression software (GraphPad Prism 5).

The test system of experiment [2] is K562. Put plainly: Antiproliferative activity (MTS assay), K562. Conditions: Homo sapiens, K562, 96 h, K562 cells. Here is the method:
as §1, §2, §3, §4

Experiment [3] has as its system Hela. As to the kind of experiment: Antiproliferative activity (MTS assay), Hela. Conditions: Homo sapiens, HeLa, 96 h, Hela cells. Here is the method: as §1, §2, §3, §4
For experiment [4], the system named is MDA-MB-468. As to the kind of experiment: Antiproliferative activity (MTS assay), MDA-MB-468. Conditions: Homo sapiens, MDA-MB-468, 96 h, MDA-MB-468 cells. Here is the method: as §1, §2, §3, §4

Our source for the IC50 values is US8946268B2, “Modulators of HEC1 activity and methods therefor” (Taivex Therapeutics, Inc., priority 2010, dated 2015).

Structures are written as SMILES. A value given as a limit tells only on which side of the number the result lay.

For the compound `Cc1cc(C)c(-c2csc(NC(=O)c3ccnc(N4CCCCC4)c3)n2)c(C)c1` [Compound 91], the IC50 in experiment [1] is 6060 nM; in experiment [2] it was 1400 nM; in experiment [3] it was greater than 10000 nM; in experiment [4], 4660 nM.

For `Cc1cc(C)c(-c2csc(NC(=O)c3ccnc(N(C)C)c3)n2)c(C)c1` [Compound 92], the IC50 in experiment [1] is 2210 nM; in experiment [2] it was 450 nM; in experiment [3], greater than 10000 nM; in experiment [4], 3290 nM.

On to `Cc1cc(C)c(-c2csc(NC(=O)Cc3ccncc3)n2)c(C)c1` [Compound 93], for which the IC50 stood at 310 nM in experiment [1], 380 nM in experiment [2], 620 nM in experiment [3] and 300 nM in experiment [4].

On to `Cc1cc(OCC(C)O)cc(C)c1-c1csc(NC(=O)c2ccncc2)n1` (centres unmarked) [Compound 94], for which the IC50 was 300 nM in experiment [1], 230 nM in experiment [2], 230 nM in experiment [3] and 390 nM in experiment [4].

Consider `Cc1cc(OCC(O)CO)cc(C)c1-c1csc(NC(=O)c2ccncc2)n1` (centres unmarked) [Compound 97], for which the IC50 in experiment [1] was determined as 8300 nM; in experiment [2], 9110 nM; in experiment [3] it was 3260 nM; in experiment [4], 3110 nM.

In the case of `COc1ccc(Oc2cc(C)c(-c3csc(NC(=O)c4ccnc(F)c4)n3)c(C)c2)cc1` [Compound 98], the IC50 was found to be 20 nM in experiment [1], 20 nM in experiment [2], 40 nM in experiment [3] and 40 nM in experiment [4].

Take `Cc1cc(Oc2ccc3c(c2)OCO3)cc(C)c1-c1csc(NC(=O)c2ccncc2)n1` [Compound 101]: the IC50 in experiment [1] is 70 nM; in experiment [2] it was 50 nM; in experiment [3], 110 nM; in experiment [4], 130 nM.

`Cc1cc(C)c(-c2csc(NC(=O)/C=C/c3cccnc3)n2)c(C)c1` [Compound 103]: the IC50 in experiment [1] is 1110 nM; in experiment [2], 2480 nM; in experiment [3] it was greater than 10000 nM; in experiment [4], 2170 nM.

For `Cc1cc(C)c(-c2csc(NC(=O)c3ccc4cn[nH]c4c3)n2)c(C)c1` [Compound 104], the IC50 was 1100 nM in experiment [1], 2440 nM in experiment [2], greater than 10000 nM in experiment [3] and 7640 nM in experiment [4].

As to `Cc1cc(C)c(-c2csc(NC(=O)c3ccc4[nH]ncc4c3)n2)c(C)c1` [Compound 105], the IC50 was greater than 10000 nM in experiment [1], greater than 10000 nM in experiment [2], greater than 10000 nM in experiment [3] and 8020 nM in experiment [4].

For `Cc1cc(C)c(-c2csc(NC(=O)c3ccc4[nH]nnc4c3)n2)c(C)c1` [Compound 106], the IC50 in experiment [1] was 4950 nM; in experiment [2], greater than 10000 nM; in experiment [3], greater than 10000 nM; in experiment [4], greater than 10000 nM.

`COCCOc1cc(C)c(-c2csc(NC(=O)c3ccncc3)n2)c(C)c1` [Compound 109]: the IC50 is 260 nM in experiment [1], 240 nM in experiment [2], 310 nM in experiment [3] and 280 nM in experiment [4].

`COCCCOc1cc(C)c(-c2csc(NC(=O)c3ccncc3)n2)c(C)c1` [Compound 110]: the IC50 in experiment [1] is 90 nM; in experiment [2] it was 100 nM; in experiment [3], 110 nM; in experiment [4], 130 nM.

`COc1ccccc1Oc1cc(C)c(-c2csc(NC(=O)c3ccncc3)n2)c(C)c1` [Compound 111]: the IC50 in experiment [1] turned out to be 250 nM; in experiment [2], 180 nM; in experiment [3] it was 330 nM; in experiment [4] it was 330 nM.

With `Cc1cc(I)cc(C)c1-c1csc(NC(=O)c2ccncc2)n1` [Compound 114], the IC50 in experiment [1] is 300 nM; in experiment [2], 230 nM; in experiment [3], 400 nM; in experiment [4], 550 nM.

Take `Cc1cc(Sc2ccccc2)cc(C)c1-c1csc(NC(=O)c2ccncc2)n1` [Compound 115]: the IC50 in experiment [1] was determined as 170 nM; in experiment [2], 140 nM; in experiment [3], 230 nM; in experiment [4], 220 nM.

In the case of `Cc1ccc(Sc2cc(C)c(-c3csc(NC(=O)c4ccncc4)n3)c(C)c2)cc1` [Compound 116], the IC50 in experiment [1] stood at 120 nM; in experiment [2], 110 nM; in experiment [3], 150 nM; in experiment [4], 130 nM.

Turning to `Cc1cc(Cc2ccccc2)cc(C)c1-c1csc(NC(=O)c2ccncc2)n1` [Compound 118], the IC50 is 240 nM in experiment [1], 150 nM in experiment [2], 270 nM in experiment [3] and 220 nM in experiment [4].

For `COc1ccc(Oc2cc(C)c(-c3csc(NC(=O)c4cc[n+]([O-])cc4)n3)c(C)c2)cc1` [Compound 120], the IC50 is 220 nM in experiment [1], 180 nM in experiment [2], 160 nM in experiment [3] and 250 nM in experiment [4].

On to `COc1ccc(Oc2cc(C)c(-c3csc(NC(=O)c4ccncc4C)n3)c(C)c2)cc1` [Compound 121], for which the IC50 is 440 nM in experiment [1], 320 nM in experiment [2], 900 nM in experiment [3] and 810 nM in experiment [4].

For the compound `Cc1cc(Nc2ccc(Br)cc2)cc(C)c1-c1csc(NC(=O)c2ccncc2)n1` [Compound 122], the IC50 turned out to be 720 nM in experiment [1], 360 nM in experiment [2], 2130 nM in experiment [3] and 1220 nM in experiment [4].

As for `Cc1cc(Nc2ccccc2)c(Br)c(C)c1-c1csc(NC(=O)c2ccncc2)n1` [Compound 123], the IC50 in experiment [1] was found to be 610 nM; in experiment [2], 330 nM; in experiment [3], 870 nM; in experiment [4] it was 880 nM.

Consider `COc1ccc(Oc2cc(C)c(-c3csc(NC(=O)c4ccnc([N+](=O)[O-])c4)n3)c(C)c2)cc1` [Compound 124], for which the IC50 in experiment [1] worked out at 220 nM; in experiment [2], 120 nM; in experiment [3], 330 nM; in experiment [4] it was 530 nM.

For the compound `CSc1cc(C)c(-c2csc(NC(=O)c3ccncc3)n2)c(C)c1` [Compound 125], the IC50 in experiment [1] turned out to be 160 nM; in experiment [2], 180 nM; in experiment [3], 270 nM; in experiment [4], 250 nM.

For `COc1ccc(Sc2cc(C)c(-c3csc(NC(=O)c4ccnc(F)c4)n3)c(C)c2)cc1` [Compound 126], the concentration for half-maximal inhibition (IC50) in experiment [1] came out at 30 nM; in experiment [2] it was 20 nM; in experiment [3] it was 40 nM; in experiment [4] it was 50 nM.

As for `Cc1cc(S(C)(=O)=O)cc(C)c1-c1csc(NC(=O)c2ccncc2)n1` [Compound 127], the IC50 in experiment [1] came to 450 nM; in experiment [2], 530 nM; in experiment [3], 840 nM; in experiment [4], 460 nM.

Regarding `COc1ccc(Oc2cc(C)c(-c3csc(NC(=O)c4ccnc(N)c4)n3)c(C)c2)cc1` [Compound 128], the half-maximal inhibitory concentration (IC50) in experiment [1] came out at 160 nM; in experiment [2], 190 nM; in experiment [3], 240 nM; in experiment [4] it was 160 nM.

As for `COc1ccc(S(=O)(=O)c2cc(C)c(-c3csc(NC(=O)c4ccncc4)n3)c(C)c2)cc1` [Compound 129], the IC50 amounted to 200 nM in experiment [1], 190 nM in experiment [2], 270 nM in experiment [3] and 270 nM in experiment [4].

Turning to `COc1ccc([S+]([O-])c2cc(C)c(-c3csc(NC(=O)c4ccncc4)n3)c(C)c2)cc1` (centres unmarked) [Compound 130], the IC50 came out at 90 nM in experiment [1], 80 nM in experiment [2], 180 nM in experiment [3] and 140 nM in experiment [4].
